Assay results taken from PubChem BioAssay (NCI).
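Briefly, cells in 96-well plates were exposed to five compound concentrations for 48 h, and endpoints were estimated by linear interpolation. Definition used: TGI = concentration required for complete inhibition of growth.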

How the values were obtained:
Assay in all cases: DTP human tumour cell line panel, 48 h
OVCAR-8 ovarian = tested on: OVCAR-8 ovarian
SNB-75 CNS = tested on: SNB-75 CNS
SK-MEL-5 melanoma = tested on: SK-MEL-5 melanoma
SK-MEL-28 melanoma = tested on: SK-MEL-28 melanoma
HCT-116 colon = tested on: HCT-116 colon
ACHN renal = tested on: ACHN renal
SW-620 colon = tested on: SW-620 colon
SR leukemia = tested on: SR leukemia
SF-539 CNS = tested on: SF-539 CNS
786-0 renal = tested on: 786-0 renal
CAKI-1 renal = tested on: CAKI-1 renal
NCI-H460 lung = tested on: NCI-H460 lung
SN12C renal = tested on: SN12C renal
NCI-H522 lung = tested on: NCI-H522 lung
OVCAR-4 ovarian = tested on: OVCAR-4 ovarian
RXF-631 renal = tested on: RXF-631 renal
NCI-H226 lung = tested on: NCI-H226 lung
MALME-3M melanoma = tested on: MALME-3M melanoma
RXF 393 renal = tested on: RXF 393 renal
SK-OV-3 ovarian = tested on: SK-OV-3 ovarian
SNB-78 CNS = tested on: SNB-78 CNS
U251 CNS = tested on: U251 CNS
UACC-62 melanoma = tested on: UACC-62 melanoma
K-562 leukemia = tested on: K-562 leukemia
RPMI-8226 leukemia = tested on: RPMI-8226 leukemia
HOP-62 NSCLC = tested on: HOP-62 NSCLC
EKVX NSCLC = tested on: EKVX NSCLC
OVCAR-3 ovarian = tested on: OVCAR-3 ovarian
M14 melanoma = tested on: M14 melanoma
KM12 colon = tested on: KM12 colon
SNB-19 CNS = tested on: SNB-19 CNS
UACC-257 melanoma = tested on: UACC-257 melanoma
DMS 114 small cell lung = tested on: DMS 114 small cell lung
HCC-2998 colon = tested on: HCC-2998 colon
HOP-18 NSCLC = tested on: HOP-18 NSCLC
M19-MEL melanoma = tested on: M19-MEL melanoma
LXFL 529 NSCLC = tested on: LXFL 529 NSCLC
COLO 205 colon = tested on: COLO 205 colon
TK-10 renal = tested on: TK-10 renal
IGROV1 ovarian = tested on: IGROV1 ovarian
DLD-1 colon = tested on: DLD-1 colon
SK-MEL-2 melanoma = tested on: SK-MEL-2 melanoma
DMS 273 small cell lung = tested on: DMS 273 small cell lung
SF-268 CNS = tested on: SF-268 CNS
HCT-15 colon = tested on: HCT-15 colon
MOLT-4 leukemia = tested on: MOLT-4 leukemia
A549 NSCLC = tested on: A549 NSCLC
UO-31 renal = tested on: UO-31 renal
HL-60(TB) leukemia = tested on: HL-60(TB) leukemia
CCRF-CEM leukemia = tested on: CCRF-CEM leukemia
A498 renal = tested on: A498 renal
KM20L2 colon = tested on: KM20L2 colon

Measured: TGI

COC(=O)C1CCc2nnc(-c3cccnc3)n21 (configuration not stated)
> 100 µM: all assays above
